# Reference: patent US10550130B2, “Benzo-thiazolo-imidazole compounds and uses thereof” (KING SAUD UNIVERSITY, priority 2015, dated 2020)
# Assays:
# Format in all cases: cell-based
# [1] = test system: colony forming SKBR3 cells; test: 2-D colony formation assay; details: 5000 viable cells from the ALDEFLUOR assay cells; 60 mm dish
# Experimental: Cells were treated with different concentration of the compound or control medium containing 0.1% DMSO for 72 h. Cells were harvested and counted by using trypan blue to exclude the dead cells. A 5000 viable cells of treated and control cells were suspended in 3 ml DMEM supplemented with 10% FBS (Cambrex Bio Science) and seeded in a 60 mm tissue culture dish (Falcon, BD). The next day, a new fresh media was added and the cells were allowed to grow forming colonies for 14 d. The cells were then stained with methylene blue (Sigma-Aldrich, St. Louis, Mo., USA) and colonies containing more than 20 cells were counted.
# Thus, from the same cells as used in the ALDEFLUOR assay, 5000 viable cells were seeded in a 60 mm tissue culture dish.
# intracellular Notch-1 = test: Immunofluorescence of intracellular Notch-1 in MDA-MB-231 breast cancer cells; details: MDA-MB-231 cells; FIGS. 1B and 1C
# Experimental: MDA-MB-231 breast cancer cells were treated either with vehicle (control) or with 0.01 μM, 0.1 μM, 1 μM or 10 μM final concentration of doxorubicin, taxotere or KSA-101696. Then, the cells were cytospun to glass slides by centrifugation at 800 rpm for 3 min. Slides were then air-dried overnight and 4% formaldehyde fixed for 10 min. For staining, the cell membrane was permeabilized with 0.5% triton-X (Sigma) followed by overnight incubation with primary antibodies (anti-Numb, Abcam) and (anti-intracellular Notch-1, Cell Signalling) at 1:100. Cells were washed and stained with AlexaFluor goat anti-rabbit IgG 488 (Invitrogenat) 1:400 for 30 minutes. 300 nM DAPI (Invitrogen, Carlsbad, Calif., USA) was added for 10 minutes to counterstain the nuclei. Slides were mounted and immunofluorescence was visualized using BD Pathway 855 microscope.
# Numb exerts its functional role on cell fate decisions by antagonizing Notch signaling activities. The molecular mechanisms underlying this relationship appear to rely on the ubiquitination of the membrane bound Notch-1 receptor and the subsequent degradation of its NICD (Notch intracellular domain) following receptor activation.
# SKBR-3 = test: Annexin V binding by flow cytometry (apoptosis)
# Experimental: (§1) It is known that loss of phospholipid asymmetry of the plasma membrane is an early event of apoptosis. The annexin V binds to negatively charged phospholipids, like phosphatidylserine. During apoptosis, the cells react to annexin V once chromatin condenses but before the plasma membrane loses its ability to exclude propidium iodide (PI).
# (§2) Annexin-V staining was performed by using Vybrant Apoptosis Assay Kit #2 (Molecular Probes) following the manufacturer's recommendations. Annexin-V stained cells were analyzed by flow cytometry, measuring the fluorescence emission between 515 nm to 545 nm.
# (§3) To evaluate the selective-apoptotic effect of the compound in cancer cells but not normal cells, the cancer cell lines SKBR3, MDA-MB-468, and normal cells MCF-10 A, HSFN1 (human foreskin cells) and BM4 (bone marrow derived mesenchymal stem cells) were used. […] Upon treatment of cells with 20 μM for 48 h, cells were stained with Annexin-V and PI and binding of Annexin-V and PI to the cells was determined by flow cytometry.
# (§4) In a next step, it was investigated whether there was a correlation between Numb protein expression and sensitivity of a cell line to the apoptotic effects of KSA-101696. Apoptotic cells were determined by Annexin-V staining as described in Example 1.
# MDA-MB-468 = test: Annexin V binding by flow cytometry (apoptosis)
# Experimental: as §1, §2, §3, §4
# SP cells of MCF-7 cells = test: Side population (SP) cell fraction by flow cytometry; details: Homo sapiens, MCF7, 24 h, normal culture conditions, read-out: IC50, SP cell inhibition
# From the text: It is known that one of the properties of stem/progenitor cells is their ability to survive under anchorage-independent conditions and generate mammospheres, which are composed of a small number of stem cells. Given that CSCs generally make up for a small minority of the cells within cancer cell populations, the dye DyeCycle Violet was used to isolate SP cells (side population cells; the side population is enriched for stem/progenitor cells), through a BD FACSAria™ cell sorter. Subsequently, the isolated SP cells were used in a Mammosphere Formation Assay. SP cells of MCF-7 and BT-474 formed more mammospheres than non-SP cells (see FIG. 4A).
# Next, the effects of the compound KSA-101696 in SP cells under normal culture conditions was evaluated.
# [2] = test system: ALDH-positive SKBR3 cells; test: Aldefluor assay (ALDH-positive cells)
# Experimental: SKBr3 cells with or without treatment harvested, washed and incubated in aldefluor assay buffer containing an ALDH substrate (BAAA). For negative control, half of the cells of each sample was removed to another FACS tube and incubated under identical condition with DEAB (diethylaminobenzaldehyde), a specific inhibitor of ALDH enzyme.
# Because SKBR3 cells include, among various cell lines tested, a particularly high percentage of ALDH-positive cells, SKBR3 cells were selected to evaluate whether KSA-101696 inhibits ALDH-positive cells in vitro.
# After two days of treatment with 2.5 μM of KSA-101696, a more that 50% reduction in ALDH-positive cell percentage was observed (FIG. 5A).
compound,measurement,setting,value
"COc1ccc(-c2csc3nc4ccccc4n23)cc1 [KSA-101696, 3-(4-methoxyphenyl)benzo[4,5]imidazo[2,1-b]thiazole]",inhibition of colony forming cells,[1],showed the same activity in inhibition of colony forming cells
same,concentration inhibiting intracellular Notch-1 by activating Numb expression,intracellular Notch-1,0.625 µM
same,apoptosis (Annexin-V) in relation to Numb expression,"SKBR-3; SKBR-3, low levels of Numb expression, FIG. 9B",increased apoptosis
same,apoptosis (Annexin-V and PI),"SKBR-3; SKBR-3, 20 μM, 48 h",induced apoptosis
same,apoptosis (Annexin-V) in relation to Numb expression,"MDA-MB-468; MDA-MB-468, low levels of Numb expression, FIG. 9B",increased apoptosis
same,apoptosis (Annexin-V and PI),"MDA-MB-468; MDA-MB-468, 20 μM, 48 h",induced apoptosis
same,IC50,SP cells of MCF-7 cells,~300 nM
same,reduction in ALDH-positive cell percentage,"[2]; 2.5 μM, two days",> 50%
same,IC50,"[2]; Homo sapiens, SK-BR-3",~2000 nM
